This data set relates to MDA MB 231 cells. The data set can be described thus: In vivo study in mice, MDA MB 231 tumour growth. The arrangement: species or system Athymic Nude female mice. As to conditions: 25 mg/kg twice a day by oral gavage, 10 days. How it is done:
The effect of Example 1 on tumor growth rate in mice was also investigated.
5×10^6 MDA MB 231 cells (obtained from Professor Eric Aboagye, Hammersmith Hospital; cell type: triple negative breast cancer) were resuspended in PBS, and 50 μl of cells/PBS was mixed with 50 μl of Matrigel to provide a total volume of 100 μL containing 50% Matrigel. The suspension was injected into the right flank in 16 Athymic Nude female mice. Mice were five to six weeks old and obtained from Charles Rivers Laboratories. All of the experiments were carried out under London Home Office license authority and London Home Office Ethics Committee guidelines. When the tumour mass reached 50 mm3, the animals were randomized (8 per group) and treated for 10 days with PBS solution (control group) or 25 mg/kg of Example 1 suspended in PBS twice a day by oral gavage. Tumor growth rates were analyzed by caliper measurements every day after the start of the treatment period with Example 1 (“NMTi”) or the control (“PBS”). Tumor volume was calculated according to the formula: […]. Weight of the mice was also measured every day after the start of the treatment period with Example 1 (“NMTi”) or the control (“PBS”). Mice were euthanised when the tumor size exceeded 15 mm in diameter in any direction.

Consider `Cc1c(CCOc2cc(Cl)ccc2-c2ccc3ncc(CCN)n3c2)c(C(=O)N(C)C)nn1C` [Example Compound 1, 4-(2-{2-[3-(2-aminoethyl)imidazo[1,2-a]pyridin-6-yl]-5-chlorophenoxy}ethyl)-N,N,1,5-tetramethyl-1H-pyrazole-3-carboxamide], for which the “weight change in the mice” value is reported as “No weight change”. Besides, the tumour growth rate entry (vs PBS control) is “reduced”.
